Experiments:
[1] = Antiproliferative activity against HUVEC cells assessed as inhibition of cell growth; format: toxicity, cell-based; conditions: human
[2] = target: T1, Cyclin-dependent kinase 8 (Homo sapiens, UniProt P49336); assay: Inhibition of CDK8 (unknown origin)
Heat shock protein HSP90 = Heat shock protein HSP90 (Homo sapiens, UniProt P07900+P08238); assay: Inhibition of HSP90 (unknown origin); format: protein assay
[3] = target: T1, Cyclin-dependent kinase 8; assay: Binding affinity to CDK8 (unknown origin)
HCT-116 = assay: Anticancer activity against human HCT-116 cells assessed as inhibition of cell growth by SRB assay; format: functional, cell-based
CDK8/Cyclin C = CDK8/Cyclin C (Homo sapiens, UniProt P49336); assay: Inhibition of CDK8/Cyclin C (unknown origin) using RBER-IRStide as substrate by radiometric assay; format: protein-complex assay
Sequence of CDK8/Cyclin C (P49336 whole entry): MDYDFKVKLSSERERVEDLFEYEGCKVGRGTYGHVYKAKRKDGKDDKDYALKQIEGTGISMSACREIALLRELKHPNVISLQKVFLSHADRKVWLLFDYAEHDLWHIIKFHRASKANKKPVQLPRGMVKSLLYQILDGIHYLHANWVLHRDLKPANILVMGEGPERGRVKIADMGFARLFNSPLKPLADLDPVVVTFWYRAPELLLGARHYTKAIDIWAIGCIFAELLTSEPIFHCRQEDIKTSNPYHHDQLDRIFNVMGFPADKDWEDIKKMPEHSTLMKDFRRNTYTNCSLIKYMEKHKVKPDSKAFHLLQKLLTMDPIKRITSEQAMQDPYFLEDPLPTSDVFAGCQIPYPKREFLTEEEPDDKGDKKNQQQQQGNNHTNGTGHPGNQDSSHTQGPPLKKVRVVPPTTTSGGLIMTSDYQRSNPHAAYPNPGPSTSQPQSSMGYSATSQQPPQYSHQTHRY
Sequence of CDK8/Cyclin C (P24863 whole entry, further chain): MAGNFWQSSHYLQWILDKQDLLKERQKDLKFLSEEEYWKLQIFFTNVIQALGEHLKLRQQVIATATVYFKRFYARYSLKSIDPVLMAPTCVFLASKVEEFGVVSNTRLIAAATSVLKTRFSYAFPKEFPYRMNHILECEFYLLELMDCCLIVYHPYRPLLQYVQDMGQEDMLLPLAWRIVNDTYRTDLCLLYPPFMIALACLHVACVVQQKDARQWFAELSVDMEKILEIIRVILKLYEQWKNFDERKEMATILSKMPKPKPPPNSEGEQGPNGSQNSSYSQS

T1 sequence (P49336 whole entry): as the sequence (P49336 whole entry) above

Compound: Cc1cnccc1CC[C@@H](C)[C@H]1CC[C@@H]2[C@]1(C)CCC1=CC3=CC[C@@H](N(C)C)C[C@]34CC[C@@]12O4
- IC50 [1]: 0.35 µM

Compound: Cc1cccc(Cc2n[nH]c3cc(O)c(C(=O)N4Cc5ccccc5C4)cc23)c1
- IC50 [2]: 0.015 µM
- IC50 (Heat shock protein HSP90): 0.11 µM

Compound: Cc1ccc(-n2nc(C(C)(C)C)cc2NC(N)=O)cc1
- Kd [3]: 3.24 µM

Compound: Cc1cnccc1/C=C/[C@@H](C)[C@H]1CC[C@@H]2[C@]1(C)CCC1=CC3=CC[C@@H](N(C)C)C[C@]34CC[C@@]12O4
- IC50 [1]: 0.8 µM

Compound: COc1ccc(/C=N/c2ncc(-c3cc4ccccc4oc3=O)o2)cc1O
- IC50 (HCT-116): 71.8 µM

Compound: CC1CN(C)CCC1CC[C@@H](C)[C@H]1CC[C@@H]2[C@]1(C)CCC1=CC3=CC[C@@H](N(C)C)C[C@]34CC[C@@]12O4 (stereo partly specified)
- IC50 [1]: 0.45 µM

Compound: CCCNc1ncnc2ccc(Br)cc12
- IC50 (CDK8/Cyclin C): 6.1 µM

Compound: CNC(=O)c1ccc2[nH]nc(Cc3ccc4c(cnn4C)c3)c2c1
- IC50 (Heat shock protein HSP90): > 10 µM

Compound: N#Cc1ccc2ncnc(NCCc3ccc4ccccc4c3)c2c1
- IC50 (CDK8/Cyclin C): 0.74 µM

Compound: CN(C)[C@H]1C[C@@]23CC[C@@]4(O2)C(=CC[C@@]2(C)[C@H]4CC(=O)[C@]2(O)c2ccc4ccncc4c2)C=C3[C@@H](O)[C@@H]1O
- IC50 [1]: 0.15 µM

Compound: CC1CN(C)CCC1CCC(C)[C@H]1CC[C@@H]2[C@]1(C)CC=C1C=C3C=C[C@@H](N(C)C)C[C@]34CC[C@@]12O4 (stereo partly specified)
- IC50 [1]: 1.9 µM

Compound: CN(C)[C@H]1C[C@@]23CC[C@@]4(O2)C(=CC[C@@]2(C)[C@H]4C[C@H](O)[C@@H]2c2ccc4ccncc4c2)C=C3[C@@H](O)[C@@H]1O
- IC50 [1]: 1.1 µM

Compound: N#Cc1ccc2ncnc(NCCc3ccccc3)c2c1
- IC50 (CDK8/Cyclin C): 0.64 µM

Compound: CN(C)[C@@H]1C=CC2=CC3=CC[C@]4(C)[C@@H](c5ccc6ccncc6c5)CC[C@H]4[C@@]34CC[C@]2(C1)O4
- IC50 [1]: 0.008 µM

Compound: CN(C)[C@H]1C[C@@]23CC[C@@]4(O2)C(=CC[C@]2(C)[C@@H](c5ccc6ccncc6c5)C(=O)C[C@H]24)C=C3[C@@H](O)[C@@H]1O
- IC50 [1]: 0.019 µM

Source: ChEMBL document CHEMBL5241055, “Angel or Devil ? - CDK8 as the new drug target” (Eur J Med Chem, 2021)
